According to patent publication US20050085420A1, “Method of modulating apoptosis and compositions thereof” (priority 2003, published 2005):

Tests used:
Format in all cases: cell-based, mouse
wt MEF lines = assay: Cytochrome c fluorescence microscopy after staurosporine, wt MEF line; conditions: 1 μM STS, 4 hours
Experimental: (§1) FIG. 4D is a photograph depicting two-color fluorescence microscopy of wt and vdac2 -/- MEF lines at 4 hours following 1 μM STS. Red indicates cytochrome c and blue is Hoechst staining of DNA.
(§2) MEF cell lines treated with 1 μM staurosporine were harvested at various time points and lysed for 5 min in isotonic buffer containing 10 mM KCl, 5 mM MgCl2, 1 mM EDTA, 1 mM EGTA, 250 mM sucrose, 20 mM Hepes, pH 7.2, 0.025% digitonin, and complete protease inhibitors (Roche). Organelles that contain mitochondria were removed from the soluble cytosolic fraction by pelleting at 15000 g. Supernatant and mitochondrial pellets were solubilized in SDS-PAGE loading buffer and analyzed by an immunoblot, developed with an anti-cytochrome c Ab. Protein cross-linking, immunoblot, immunoprecipitation, isolation of mitochondria, cell viability assays, and anti-cytochrome c immunohistochemistry were described previously E. H. Cheng et al., Mol Cell 8, 705-11. (2001).

vdac2 -/- MEF cell lines [1] = assay: Cytochrome c release assay (subcellular fractionation, immunoblot), vdac2 -/- cells; conditions: 1 μM staurosporine
Experimental: (§3) FIG. 4C is a photograph depicting treatment of wt or vdac2 -/- MEF cell lines with 1 μM STS. The wt or vdac2 -/- MEF cell lines were subcellularly fractionated (see method) at indicated time points. Cytochrome c distribution in the cytosol versus mitochondria was assessed by immunoblot developed with an anti-cytochrome c antibody.
as §2, with “Protein cross-linking, immunoblot, immunoprecipitation, isolation of mitochondria, cell viability assays, and anti-cytochrome c immunohistochemistry were described previously E. H. Cheng et al., Mol Cell 8, 705-11. (2001).” left out
(§4) In contrast, the response of wt- and vdac2-dificient cells was similar when the extrinsic death pathway was activated by TNFα (FIG. 4E). […] BAK already underwent oligomerization within 5 hours after staurosporine treatment in vdac2 -/- cells but not wt cells, as assessed by gel filtration (FIG. 4F) (X. Roucou, S. Montessuit, B. Antonsson, J. C. Martinou, Biochem J 368, 915-21. (2002)). […]

vdac2 -/- MEF cell lines [2] = assay: BAK oligomerization by gel filtration after staurosporine, vdac2 -/- cells
Experimental: (§5) FIG. 4F is a photograph depicting mitochondria isolated from wt or vdac2 -/- MEF cell lines with or without treatment with STS for 5 hours were solubilized in 2% CHAPS buffer. 200 μg of lysate was subjected to Superdex 200 (HR 10/30) gel filtration column chromatography. Fractions were analyzed by an immunoblot developed with anti-BAK antibody.
(§6) The chromatographic step of Superdex 200 (HR 10/30, Amersham-Pharmacia) was performed on an automatic fast protein liquid chromatography (FPLC) station (Amersham-Pharmacia) at 4° C. […] Fractions of 0.6 ml were collected, precipitated by trichloroacetic acid, and analyzed by an immunoblot (fractions 16-31) developed with an anti-BAK Ab.
as §4

vdac2 -/- MEF lines = assay: Cytochrome c fluorescence microscopy after staurosporine, vdac2 -/- MEF line; conditions: 1 μM STS, 4 hours
Experimental: as §1, §2

wt MEF cell lines [3] = assay: Cytochrome c release assay (subcellular fractionation, immunoblot), wt cells; conditions: 1 μM staurosporine
Experimental: as §3
as §2, with “Protein cross-linking, immunoblot, immunoprecipitation, isolation of mitochondria, cell viability assays, and anti-cytochrome c immunohistochemistry were described previously E. H. Cheng et al., Mol Cell 8, 705-11. (2001).” left out
as §4

wt MEF cell lines [4] = assay: BAK oligomerization by gel filtration after staurosporine, wt cells
Experimental: as §5, §6, §4

Bak -/- MEFs = assay: Annexin-V cell death after retroviral expression of VDAC1 or VDAC2 in Bak -/- MEFs; conditions: Bak -/- cells
Experimental: (§7) FIG. 3A are two graphs illustrating Bax -/- or Bak -/- MEFs at 2 days following retroviral expression of VDAC1, VDAC2, or GFP (MIG vector control), wherein the Bax -/- or Bak -/- MEFs were treated with 1.2 μM staurosporine (STS). Cell death was quantitated by flow cytometric detection of Annexin-V staining at indicated time points. Values shown are mean ±1 SD of three independent experiments.
(§8) FIG. 3B is a histogram depicting Bax -/- or Bak -/- MEFs at 2 days following retroviral expression of VDAC2 or GFP (MIG vector control), wherein the Bax -/- or Bak -/- MEFs were infected with tBID-expressing retrovirus. Cell death was quantitated by flow cytometric detection of Annexin-V staining at 24 hr. Values shown are mean ±1 SD of three independent experiments.
as §7, with “6” for “3A”, “that depict” for “illustrating”, “10 μg/ml etoposide.” for “1.2 μM staurosporine (STS).”
(§9) Previous studies have shown that cells doubly deficient for BAX and BAK are resistant to intrinsic death stimuli, whereas cells singly deficient for BAX or BAK are still susceptible (M. C. Wei et al., Science 292, 727-30. (2001)). As VDAC2 interacts with BAK but not BAX, the ability of VDAC2 to modulate apoptosis mediated by BAK or BAX was tested. According to one hypothesis, VDAC2 might function as an inhibitor of BAK or VDAC2 itself might function as a proapoptotic factor once released from BAK. To address these alternatives VDAC 1 or VDAC2 was expressed in Bax -/- or Bak -/- singly deficient mouse embryonic fibroblasts (MEFs) followed by treatment with staurosporine or etoposide. […] Expression of VDAC2 inhibited tBID-induced apoptosis of Bax -/- cells but not Bak -/- cells, further supporting a selective role for VDAC2 in negatively regulating BAK-dependent apoptosis (FIG. 3B).

Bax -/- MEFs = assay: Annexin-V cell death after retroviral expression of VDAC1 or VDAC2 in Bax -/- MEFs; conditions: Bax -/- cells
Experimental: as §7, §8
as §7, with “6” for “3A”, “that depict” for “illustrating”, “10 μg/ml etoposide.” for “1.2 μM staurosporine (STS).”
as §9

vdac2 -/- MEFs = assay: Re-expression of VDAC2 in vdac2 -/- MEFs, Annexin-V cell death; conditions: normal physiologic levels, 1.2 μM staurosporine 6 hr
Experimental: FIG. 3E is a histogram depicting infection of primary vdac2 -/- MEFs with retrovirus expressing GFP (MIG vector control) or VDAC2-IRES-GFP. At 36 hours the GFP-positive cells isolated by MoFlo sorting were treated with 1.2 μM staurosporine for 6 hr. Cell death was quantitated by flow cytometric detection of Annexin-V staining. Values shown are mean ±1 SD of three independent experiments.

[5] = retroviral expression, 1.2 μM staurosporine or 10 μg/ml etoposide, Annexin-V
[6] = tBID-expressing retrovirus, Annexin-V at 24 hr

CN[C@@H]1C[C@H]2O[C@@](C)([C@@H]1OC)n1c3ccccc3c3c4c(c5c6ccccc6n2c5c31)C(=O)NC4 [staurosporine]
cells with diffuse cytosolic staining for cytochrome c (wt MEF lines): 16%
time of complete release of cytochrome c (vdac2 -/- MEF cell lines [1]): ≤ 5 h
time of partial release of cytochrome c into the cytosol (vdac2 -/- MEF cell lines [1]): ≤ 3 h
time to BAK oligomerization (vdac2 -/- MEF cell lines [2]): ≤ 5 h
cells with diffuse cytosolic staining for cytochrome c (vdac2 -/- MEF lines): 83%
release of cytochrome c at 3 and 5 hours (wt MEF cell lines [3]): had not initiated any release of cytochrome c
time to BAK oligomerization (wt MEF cell lines [4]): ~10 h

B1: VDAC2: Voltage-Dependent Anion Channel-2, murine, retrovirally expressed (protein, UniProt Q60930 1-295, looked up)
Non-selective voltage-gated …: MAECCVPVCPRPMCIPPPYADLGKAARDIFNKGFGFGLVKLDVKTKSCSGVEFSTSGSSNTDTGKVSGTLETKYKWCEYGLTFTEKWNTDNTLGTEIAIEDQICQGLKLTFDTTFSPNTGKKSGKIKSAYKRECINLGCDVDFDFAGPAIHGSAVFGYEGWLAGYQMTFDSAKSKLTRSNFAVGYRTGDFQLHTNVNNGTEFGGSIYQKVCEDFDTSVNLAWTSGTNCTRFGIAAKYQLDPTASISAKVNNSSLIGVGYTQTLRPGVKLTLSALVDGKSFNAGGHKLGLALELEA
apoptosis after staurosporine or etoposide (Bak -/- MEFs; [5]): no effect
tBID-induced apoptosis (Bak -/- MEFs; [6]): not
apoptosis after staurosporine or etoposide (Bax -/- MEFs; [5]): significantly inhibited apoptosis
tBID-induced apoptosis (Bax -/- MEFs; [6]): inhibited
susceptibility to apoptosis after re-expression (vdac2 -/- MEFs): reversed the increased susceptibility to apoptosis
